k = constrained ethyl (cEt); d = 2'-deoxy (DNA)
Experiments:
MALAT1 [1] = experiment: In situ hybridization of MALAT1 (QuantiGene ViewRNA) in mouse tissues after intravenous ASO; format: in vivo
Excerpt: NO: 63) or a GLP-1 conjugated MALAT1 ASO (ISIS 816385) described in Example 1 at concentrations of 1.8. 0.6, or 0.2 μmol/kg. […] MALAT1 expression was detected using the QuantiGene ViewRNA tissue assay (Affymetrix, cat. No. QVT0011). Species-specific MALAT1 probes were purchased from Affymetrix (cat. No. VB-11110-01/mouse; VF1-13963/monkey). In brief, mouse tissues were fixed in 10% neutral-buffered formalin and embedded into paraffin and sectioned into […]. After deparaffinization, the tissue slides were boiled in Affymetrix pretreatment solution for 10-30 minutes followed by treatment with protease at 40° C. for 10 to 40 minutes depending on tissue. The MALAT1 RNA probe was used at a 1:40 dilution and was incubated with sample at 40° C. for 120 minutes. After washing, the MALAT1 RNA/probe complex was hybridized with preamplifier, amplifier, and AP-oligonucleotides at 40° C. for 25, 15, and 15 minutes, respectively. After removal of free AP oligonucleotide by washing in PBS, the slide was incubated with Fast Red substrate at room temperature for 30 minutes. The tissue images were acquired using an Aperio scanner. Hung et al., 2013 Nuc Acid Ther. 369-78. To determine a dose response of a GLP-1 conjugated MALAT1 ASO (ISIS 816385) described in Example 1 on pancreatic MALAT1 expression, male C57BL/6 mice fed a chow diet received a single intravenous injection of ISIS 816385 or an unconjugated MALAT1 ASO (ISIS 556089) described above at concentrations of 0.2, 0.06, and 0.02 μmol/kg. MALAT1 expression was detected using the QuantiGene ViewRNA tissue assay described above.

MALAT1 mRNA [2] = experiment: Dose dependent antisense inhibition of MALAT1 in hGLP1R-HEK cells; format: cell-based, human; conditions: approximately 24 hrs, qRT-PCR normalized to RPLP0
Method: The hGLP1R-HEK cell line was generated by expressing hGLP1R in Flp-IN™ 293 cells. Cultured hGLP1R-HEK cells were seeded at a density 30,000 cells per well in 96 well plates and saline, 100 nM or 10 μM of unconjugated parent antisense oligonucleotide ISIS 556089 targeted to MALAT1 described above or ISIS 776102 (nucleobase sequence: […]) (SEQ ID NO: 64) targeted to FOXO1, or corresponding GLP-1 peptide conjugated antisense oligonucleotides (ISIS 816385 targeted to MALAT1 described above or ION 913193 targeted to FOXO1 described above) for approximately 24 hrs. After the treatment period, cells were harvested, the mRNA isolated and adjusted to total RNA content as measured by nanadrop UV-Vis spectrophotometer. MALAT1 or FOXO1 mRNA levels were measured by quantitative real-time PCR and normalized to the mRNA levels of the house keeping gene (RPLP0) in the same samples. Human MALAT1 mRNA levels were measured using gene expression assays HS00273907 and FOXO1 mRNA levels were measured using assay Hs01054576 (Applied Biosystems). The mRNA level of the house keeping gene RPLP0 was measured using a primer probe set with forward sequence […] CAT […] (SEQ ID NO: 66), reverse sequence […] (SEQ ID NO: 67). […]
After the treatment period cells were harvested, mRNA isolated and MALAT1 mRNA levels measured by quantitative real-time PCR using the primer probe set as described herein (Example 7). […]

MALAT1 mRNA [3] = experiment: Dose dependent antisense inhibition of MALAT1 in WT HEK293 cells; format: cell-based, human; conditions: approximately 24 hrs, qRT-PCR normalized to RPLP0
MALAT1 [4] = experiment: MALAT1 expression in pancreas by in situ hybridization (RNAscope); format: in vivo, mouse; conditions: 2 μmol/kg; subcutaneous or intravenous (ISIS 556089 subcutaneous only); 72 hrs after last dose
Excerpt: Female C57BL/6Crl mice were assigned to five treatment groups. […] All animals were sacrificed approximately 72 hrs after last dose, and pancreas harvested for ex vivo analysis of uptake of antisense oligonucleotides by immunohistochemistry.
Female C57BL/6Crl mice were assigned to five treatment groups as described herein (Example 11) All animals were sacrificed approximately 72 hrs after last dose, and pancreas harvested for ex vivo analysis of MALAT1 expression by in situ hybridization.
The in situ mRNA amplification and labelling process was performed on the Ventana Discovery ULTRA, an Automated ISH platform(Ventana Medical System, Inc) using the RNAscope® VS Assay based on Advanced Cell Diagnostics (ACD). Customized probes were obtained from ACD for the detection of MALAT1 mRNA, and various parameters were tested to optimize the novel RNAscope method for ISH. The signal was amplified using multiple steps, followed by labeled probes and detected using the RNAscope® 2.5 VS Reagent Kit-RED. Stained slides were analyzed under a standard bright-field microscope.

MALAT1 mRNA [5] = experiment: MALAT1 mRNA in isolated islets and liver 72 hrs after single subcutaneous dose; format: in vivo, mouse; conditions: single subcutaneous injection 0.01, 0.1 or 1 μmol/kg
Method: (§1) Pancreatic islets were isolated by collagenase digestion from pancreas collected from exsanguinated 12 to 15 weeks old female C57BL/6Crl mice. Islets were maintained in tissue culture until use. Islet were dissociated into single cells by shaking in media containing a low extracellular calcium concentration. 10 to 20 intact or dissociated islets were plated on plastic Petri Dishes and treated with 10 μM of antisense oligonucleotides for approximately 24 hrs. After the treatment period cells were harvested, RNA isolated, adjusted to total RNA content, as measured by RIBOGREEN®. MALAT1 or FOXO1 mRNA levels measured by quantitative real-time PCR. Mouse Malat1 mRNA levels was measured using gene expression assay Mm01227912_s1 from Applied Biosystems, whereas mouse FOXO1 mRNA levels was measured using a primer probe set with forward sequence […] All data was normalized to the mRNA level of the house keeping gene (RPLP0) in the same sample, measured using a primer probe set with forward sequence […]
(§2) All animals were sacrificed 72 hrs after last dose.

MALAT1 [6] = experiment: MALAT1 in situ hybridization in beta islet cells after i.v. GLP-1 ASO conjugates with various linkers; format: in vivo, mouse; conditions: male C57BL/6 mice; intravenous 0.6 μmol/kg/week once a week for three weeks; 72 hours after final injection
MALAT-1 = experiment: Dose-dependent reduction of MALAT-1 expression in LVX-GLP1R cells; format: cell-based, human; conditions: approximately 24 hours; read-out: IC50 (MALAT-1 expression in GLP1R HEK cells)
Method: HEK cells stably expressing FLAG-tagged GLP1R were generated by infecting HEK 293 cells with FLAG-tagged GLP1R containing lentivirus produced by transfection of 293T cells with pLVX-IRES-Puro (Clontech Laboratories Inc., Mountainview, CA) harboring the FLAG-GLP1R insert. Infected cells were selected with puromycin (2 μg/ml) and then analyzed for receptor expression by western blot and immunofluorescence. Cultured GLP1R cells were plated at a density of 10,000 cells per well and treated with 0.3, 1, 3, 9, 27, 82, 247, 741, 2,222, 6,667, and 20,000 nM modified oligonucleotide for approximately 24 hours. After the treatment period, total RNA was prepared using an RNeasy mini kit (Qiagen, Valencia, CA, USA) and qRT-PCR was performed using the primer probe set RTS2739 (forward sequence: […] (SEQ ID NO: 74), reverse sequence: […] (SEQ ID NO: 75), probe sequence: […] (SEQ ID NO: 76). Briefly, ˜50 ng total RNA in 5 d water was mixed with 0.3 d primer probe sets containing forward and reverse primers (10 μM of each) and fluorescently labeled probe (3 μM), 0.3 W RT enzyme mix (Qiagen), 4.4 d RNase-free water, and 10 d of 2×PCR reaction buffer in a 20 d reaction. Reverse transcription was performed at 48° C. for 10 min, 40 cycles of PCR were conducted at 94° C. for 20 s, and 60° C. for 20 s within each cycle, using StepOne Plus RT-PCR system (Applied Biosystems, Phoenix, AZ, USA). The mRNA levels were normalized to the amount of total RNA present in each reaction as determined by Ribogreen assay (Life Technologies) and normalized to the saline control (100% expression).

MALAT1 [7] = experiment: Effect of peptide composition and attachment point on peptide-conjugated ASO activity in LVX-GLP1R cells; format: cell-based, human; conditions: 7 doses in a 4-fold dilution series, MALAT1 RNA
FOXO1 mRNA [8] = experiment: FOXO1 mRNA in cultured mouse primary islets of Langerhans treated with ASO; format: cell-based; conditions: for Islet FOXO1 mRNA levels relative to control (RPLP0): percent of untreated cells, 1 μM ASO 3 hrs every 24 hrs
Method: Pancreatic islets were isolated by collagenase digestion from pancreas collected from exsanguinated 12 to 15 weeks old female C57BL/6Crl mice. Islets were maintained in tissue culture until use. Islet were dissociated into single cells by shaking in media containing a low extracellular calcium concentration. 10 to 20 intact or dissociated islets were plated on plastic Petri Dishes and treated with 10 μM of antisense oligonucleotides for approximately 24 hrs. After the treatment period cells were harvested, RNA isolated, adjusted to total RNA content, as measured by RIBOGREEN®. MALAT1 or FOXO1 mRNA levels measured by quantitative real-time PCR. […] All data was normalized to the mRNA level of the house keeping gene (RPLP0) in the same sample, measured using a primer probe set with forward sequence […] NO: 71), reverse sequence […] NO: 72) and probe sequence […] NO: 73). Pancreatic islets were isolated by collagenase digestion from pancreas collected from euthanized 12 to 15 weeks old female B6.Cg-Lepob/J mice and maintained in tissue culture until use. 150 intact islets were placed in plastic Petri Dishes and treated with 1 μM of antisense oligonucleotides for 3 hrs every 24 hrs and harvested after approximately 24 hrs, 48 hrs or 96 hrs total treatment time respectively. After the treatment period, islets were harvested, and half of the islets were used to measure FOXO1 mRNA levels as described herein (Example 9). Half of the islets were homogenized in M-PER protein extraction reagent (Thermo Scientific) containing a protease inhibitor cocktail (Complete Mini and phosphoSTOP, Roche Diagnostics). The protein content of lysates were quantitated using BCA Assay Reagent (Pierce). […] For the anti-FoxO1 antibody, the secondary antibody was HRP-conjugated polyclonal goat anti-Rabbit P0448 (DAKO) and for the anti-α-tubulin antibody, the secondary antibody was HRP-conjugated polyclonal goat anti-mouse P0447 (DAKO). Enhanced chemiluminescence reagents (Pierce) were used for detection.

FOXO1 mRNA [9] = experiment: FOXO1 mRNA in isolated islets and liver 72 hrs after single subcutaneous dose; format: in vivo, mouse; conditions: single subcutaneous injection 0.01 or 1 μmol/kg
Method: as §1, §2

FOXO1 mRNA [10] = experiment: FOXO1 mRNA in isolated islets and liver after 6 weeks repeated administration to ob/ob mice; format: in vivo, mouse; conditions: male ob/ob mice; 0.1 μmol/kg once weekly for 6 weeks; 120 hrs after last dose
Method: Pancreatic islets were isolated by collagenase digestion from pancreas collected from exsanguinated 12 to 15 weeks old female C57BL/6Crl mice. Islets were maintained in tissue culture until use. Islet were dissociated into single cells by shaking in media containing a low extracellular calcium concentration. 10 to 20 intact or dissociated islets were plated on plastic Petri Dishes and treated with 10 μM of antisense oligonucleotides for approximately 24 hrs. After the treatment period cells were harvested, RNA isolated, adjusted to total RNA content, as measured by RIBOGREEN®. MALAT1 or FOXO1 mRNA levels measured by quantitative real-time PCR. […] All data was normalized to the mRNA level of the house keeping gene (RPLP0) in the same sample, measured using a primer probe set with forward sequence […] NO: 71), reverse sequence […] NO: 72) and probe sequence […] NO: 73). Male ob/ob mice (B6.V-Lepob/OlaHsd, Harlan) were assigned to five treatment groups receiving either vehicle, 0.1 μmol/kg ISIS 776102, 0.1 μmol/kg ION 913195, 0.03 ION 913193 or 1 μmol/kg ION 913193. All animals were treated once weekly for 6 weeks. Approximately 120 hrs after last dose all animals were sacrificed, liver samples collected and pancreatic islets isolated, as described herein (Example 9), for mRNA analysis. FOXO1 mRNA levels were quantified as described herein (Example 9) and mRNA levels expressed relative to housekeeping gene in each sample (RPLP0).

Row | Substance | effect in liver (MALAT1 in situ hybridization) (MALAT1 [1]; Study 2, single intravenous injection, any of the doses 0.2, 0.06, 0.02 μmol/kg) | MALAT1 expression in pancreatic beta islet cells (in situ hybridization) (MALAT1 [1]; male C57BL/6 mice, 2 intravenous injections of 1.8, 0.6 or 0.2 μmol/kg, 72 hours after final injection) | IC50 (MALAT1 mRNA [2]) [µM] | IC50 (MALAT1 mRNA [3]) [µM] | MALAT1 expression in the pancreatic islet of Langerhans (MALAT1 [4]) | antisense inhibition of MALAT1 in islet of Langerhans (MALAT1 mRNA [5]) | MALAT1 expression in beta islet cells compared to saline control (in situ hybridization) (MALAT1 [6]) | IC50 (MALAT-1) [µM] | IC50 (MALAT1 [7]) [µM] | reduction in FOXO1 mRNA (FOXO1 mRNA [8]; mouse islets, 1 μM ASO, summary of Table 2) | Islet FOXO1 mRNA levels relative to control (RPLP0) (FOXO1 mRNA [8]; 24 hours) [%] | Islet FOXO1 mRNA levels relative to control (RPLP0) (FOXO1 mRNA [8]; 48 hours) [%] | Islet FOXO1 mRNA levels relative to control (RPLP0) (FOXO1 mRNA [8]; 96 hours) [%] | antisense inhibition of FOXO1 in islet of Langerhans (FOXO1 mRNA [9]) | antisense inhibition of FOXO1 in islet of Langerhans (FOXO1 mRNA [10])
1 | ISIS 556089: unconjugated parent 3-10-3 cEt ASO targeting murine MALAT1, nucleobase sequence GCATTCTAATAGCAGC (SEQ ID NO: 63) (sugars from the 5' end k3 d10 k3, backbone and methylation of C not given here) [reference compound] | No observable effect | not | 0.87 | 0.74 | not reduced | No significant antisense inhibition | not | 3.97 | 3.82 |  |  |  |  |  | 
2 | ISIS 776102: unconjugated parent antisense oligonucleotide targeted to FOXO1, nucleobase sequence TCTTCTTAAAATACCC (SEQ ID NO: 64) (listed as DNA, further chemistry not given here) [reference compound] |  |  |  |  |  |  |  |  |  | marginal reduction | 82 | 86 | 92 | No significant antisense inhibition | No significant antisense inhibition

— US20240293563A1, “GLP-1 RECEPTOR LIGAND MOIETY CONJUGATED OLIGONUCLEOTIDES AND USES THEREOF” (priority 2017, published 2024)
